Data published in patent US20250018046A1, “COMPOUNDS FOR TARGETING DEGRADATION OF IRAK4 PROTEINS” (BIOGEN MA INC, priority 2021, published 2025).

Target: T1, IRAK4 (Homo sapiens, UniProt Q9NWZ3)
T1 construct: knocking-in a HiBiT fusion tag into the C-terminal of the IRAK4 gene in 293T cells; host or cells: 293T cells, knock-in of HiBiT at the endogenous IRAK4 locus
T1 sequence (Q9NWZ3 1-460): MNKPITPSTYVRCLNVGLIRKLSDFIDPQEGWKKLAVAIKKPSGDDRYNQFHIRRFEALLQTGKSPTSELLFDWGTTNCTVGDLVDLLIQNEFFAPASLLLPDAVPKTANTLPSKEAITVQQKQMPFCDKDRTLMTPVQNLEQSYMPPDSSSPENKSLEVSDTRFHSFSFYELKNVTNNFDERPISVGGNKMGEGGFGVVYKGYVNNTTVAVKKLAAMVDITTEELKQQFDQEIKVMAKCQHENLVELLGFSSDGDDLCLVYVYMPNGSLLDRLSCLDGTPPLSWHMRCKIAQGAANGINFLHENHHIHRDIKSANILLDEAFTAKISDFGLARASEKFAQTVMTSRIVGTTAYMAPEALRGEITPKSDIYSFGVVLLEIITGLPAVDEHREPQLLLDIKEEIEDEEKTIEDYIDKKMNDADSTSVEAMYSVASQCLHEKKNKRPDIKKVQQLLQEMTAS
Test: IRAK4 degradation assay using the HiBiT Method
Type: cell-based
Conditions: 293T cells expressing HiBiT-tagged IRAK4; 6-hour incubation; Nano-Glo HiBiT Lytic Assay luminescence
Protocol: Selected compounds were tested in an IRAK4 degradation assay using the HiBiT Method.
Phenol red-free Dulbecco's modified Eagle medium (DMEM) and fetal bovine serum (FBS) were purchased from Gibco (Grand Island, NY, USA). The Nano-Glo© HiBiT Lytic Assay System was purchased from Promega (Madison, WI, USA). Cell culture flasks and 384-well microplates were acquired from VWR (Radnor, PA, USA). The 293T cell line was engineered by knocking-in a HiBiT fusion tag into the C-terminal of the IRAK4 gene in 293T cells (Synthego, Redwood City, CA, USA).
IRAK4 degradation was measured via the quantification of luminescent signals using the Nano-Glo© HiBiT Lytic Assay kit. Test compounds were added to 384-well plates in duplicate using an 11-point half-log dilution series, with the highest dose set at 10 mM. 293T cells expressing HiBiT-tagged IRAK4 were then added into 384-well plates at a cell density of 10,000 cells per well. The plates were kept at 37° C. with 5% CO2 for 6 hours. Cells that were treated only with DMSO served as the negative control; wells that contained only assay media served as the background control. After the 6-hour incubation, Nano-Glo® HiBiT Lytic Assay reagents were added to the cells. Luminescence was acquired using an EnVision® Multilabel Reader (PerkinElmer, Santa Clara, CA, USA).

**Q.** For `CC(C)Oc1cn2cc(C3CCN(CC(=O)N4CCC(c5ccc(NC6CCC(=O)NC6=O)cc5)CC4)CC3)nc2cc1NC(=O)c1cccc(C(F)(F)F)n1` (single isomer, unassigned) [Example 14, N-[2-[1-[2-[4-[4-[[2,6-dioxo-3-piperidyl]amino]phenyl]-1-piperidyl]-2-oxo-ethyl]-4-piperidyl]-6-isopropoxy-imidazo[1,2-a]pyridin-7-yl]-6-(trifluoromethyl)pyridine-2-carboxamide], which DC50 is on record?
**A.** Its DC50 is 10 to 100 nM.

**Q.** `CC(C)Oc1cn2cc(C3CCN(CC(=O)N4CCC(c5ccc(NC6CCC(=O)NC6=O)cc5)CC4)CC3)nc2cc1NC(=O)c1cccc(C(F)(F)F)n1` (single isomer, unassigned) [Example 15, N-[2-[1-[2-[4-[4-[[2,6-dioxo-3-piperidyl]amino]phenyl]-1-piperidyl]-2-oxo-ethyl]-4-piperidyl]-6-isopropoxy-imidazo[1,2-a]pyridin-7-yl]-6-(trifluoromethyl)pyridine-2-carboxamide] was tested. Which DC50 did it give?
**A.** The DC50 was 10 to 100 nM.

**Q.** How did the DC50 turn out when `CC(C)Oc1cc2nc(C3CCN(C(=O)CN4CCC(c5ccc(OC6CCC(=O)NC6=O)cc5)CC4)CC3)cn2cc1NC(=O)c1cccc(C(F)(F)F)n1` (stereo not drawn) [Example 1, N-[2-[1-[2-[4-[4-[(2,6-dioxo-3-piperidyl)oxy]phenyl]-1-piperidyl]acetyl]-4-piperidyl]-7-isopropoxy-imidazo[1,2-a]pyridin-6-yl]-6-(trifluoromethyl) pyridine-2-carboxamide] was run?
**A.** Its DC50 is 100 to 500 nM.

**Q.** Which DC50 does the source give for `CC(C)Oc1cc2nc(C3CCN(C(=O)CN4CCC(c5cccc(NC6CCC(=O)NC6=O)c5F)CC4)CC3)cn2cc1NC(=O)c1cccc(C(F)(F)F)n1` (stereo not drawn) [Example 2, N-[2-[1-[2-[4-[3-[(2,6-dioxo-3-piperidyl)amino]-2-fluoro-phenyl]-1-piperidyl]acetyl]-4-piperidyl]-7-isopropoxy-imidazo[1,2-a]pyridin-6-yl]-6-(trifluoromethyl)pyridine-2-carboxamide] here?
**A.** Its DC50 is 10 to 100 nM.

**Q.** Which DC50 does the source give for `CC(C)Oc1cc2nc(C3CCN(C(=O)CN4CCC(c5cccc(NC6CCC(=O)NC6=O)c5)CC4)CC3)cn2cc1NC(=O)c1cccc(C(F)(F)F)n1` (stereo not drawn) [Example 3, N-[2-[1-[2-[4-[3-[(2,6-dioxo-3-piperidyl)amino]phenyl]-1-piperidyl]acetyl]-4-piperidyl]-7-isopropoxy-imidazo[1,2-a]pyridin-6-yl]-6-(trifluoromethyl)pyridine-2-carboxamide] here?
**A.** The DC50 was 100 to 500 nM.

**Q.** For `CC(C)Oc1cc2nc(C3CCN(C(=O)CN4CCC(c5ccc(C6CCC(=O)NC6=O)cc5)CC4)CC3)cn2cc1NC(=O)c1cccc(C(F)(F)F)n1` (stereo not drawn) [Example 4, N-[2-[1-[2-[4-[4-(2,6-dioxo-3-piperidyl)phenyl]-1-piperidyl]acetyl]-4-piperidyl]-7-isopropoxy-imidazo[1,2-a]pyridin-6-yl]-6-(trifluoromethyl)pyridine-2-carboxamide], which DC50 is on record?
**A.** Its DC50 is 100 to 500 nM.

**Q.** For `CC(C)Oc1cc2nc(C3CCN(C(=O)CN4CCN(c5ccc(C6CCC(=O)NC6=O)cc5)CC4)CC3)cn2cc1NC(=O)c1cccc(C(F)(F)F)n1` (stereo not drawn) [Example 5, N-[2-[1-[2-[4-[4-(2,6-dioxo-3-piperidyl)phenyl]piperazin-1-yl]acetyl]-4-piperidyl]-7-isopropoxy-imidazo[1,2-a]pyridin-6-yl]-6-(trifluoromethyl)pyridine-2-carboxamide], which DC50 is on record?
**A.** The DC50 was 100 to 500 nM.

**Q.** With `CC(C)Oc1cc2nc(C3CCN(C(=O)CN4CCN(c5ccc(OC6CCC(=O)NC6=O)cc5)CC4)CC3)cn2cc1NC(=O)c1cccc(C(F)(F)F)n1` (stereo not drawn) [Example 6, N-[2-[1-[2-[4-[4-[(2,6-dioxo-3-piperidyl)oxy]phenyl]piperazin-1-yl]acetyl]-4-piperidyl]-7-isopropoxy-imidazo[1,2-a]pyridin-6-yl]-6-(trifluoromethyl)pyridine-2-carboxamide] as the molecule, how does the DC50 read?
**A.** The DC50 was 100 to 500 nM.

**Q.** Which DC50 does the source give for `CC(C)Oc1cc2nc(C3CCN(C(=O)CN4CCC(c5ccc(NC6CCC(=O)NC6=O)cc5F)CC4)CC3)cn2cc1NC(=O)c1cccc(C(F)(F)F)n1` (stereo not drawn) [Example 7, N-[2-[1-[2-[4-[4-[(2,6-dioxo-3-piperidyl)amino]-2-fluoro-phenyl]-1-piperidyl]acetyl]-4-piperidyl]-7-isopropoxy-imidazo[1,2-a]pyridin-6-yl]-6-(trifluoromethyl)pyridine-2-carboxamide] here?
**A.** The DC50 was 100 to 500 nM.

**Q.** For `CC(C)Oc1cc2nc(C3CCN(C(=O)CCN4CCC(c5ccc(NC6CCC(=O)NC6=O)cc5F)CC4)CC3)cn2cc1NC(=O)c1cccc(C(F)(F)F)n1` (stereo not drawn) [Example 8, N-[2-[1-[3-[4-[4-[(2,6-dioxo-3-piperidyl)amino]-2-fluoro-phenyl]-1-piperidyl]propanoyl]-4-piperidyl]-7-isopropoxy-imidazo[1,2-a]pyridin-6-yl]-6-(trifluoromethyl)pyridine-2-carboxamide], which DC50 is on record?
**A.** Its DC50 is 10 to 100 nM.

**Q.** Which DC50 does the source give for `CC(C)Oc1cc2nc(C3CCN(C(=O)CN4CCC(c5ccc(NC6CCC(=O)NC6=O)cc5)CC4)CC3)cn2cc1NC(=O)c1cccc(C(F)(F)F)n1` (stereo not drawn) [Example 9, N-[2-[1-[2-[4-[4-[(2,6-dioxo-3-piperidyl)amino]phenyl]-1-piperidyl]acetyl]-4-piperidyl]-7-isopropoxy-imidazo[1,2-a]pyridin-6-yl]-6-(trifluoromethyl)pyridine-2-carboxamide] here?
**A.** Its DC50 is 10 to 100 nM.

**Q.** Which DC50 does the source give for `CC(C)Oc1cc2nc(C3CCN(C(=O)CN4CCN(c5ccc(NC6CCC(=O)NC6=O)cc5)CC4)CC3)cn2cc1NC(=O)c1cccc(C(F)(F)F)n1` (stereo not drawn) [Example 10, N-[2-[1-[2-[4-[4-[(2,6-dioxo-3-piperidyl)amino]phenyl]piperazin-1-yl]acetyl]-4-piperidyl]-7-isopropoxy-imidazo[1,2-a]pyridin-6-yl]-6-(trifluoromethyl)pyridine-2-carboxamide] here?
**A.** Its DC50 is 100 to 500 nM.

**Q.** With `CC(C)Oc1cc2nc(C3CCN(CC(=O)N4CCC(c5ccc(NC6CCC(=O)NC6=O)cn5)CC4)CC3)cn2cc1NC(=O)c1cccc(C(F)(F)F)n1` (stereo not drawn) [Example 11, N-[2-[1-[2-[4-[5-[(2,6-dioxo-3-piperidyl)amino]-2-pyridyl]-1-piperidyl]-2-oxo-ethyl]-4-piperidyl]-7-isopropoxy-imidazo[1,2-a]pyridin-6-yl]-6-(trifluoromethyl)pyridine-2-carboxamide] as the molecule, how does the DC50 read?
**A.** Its DC50 is 100 to 500 nM.

**Q.** `CC(C)Oc1cc2nc(C3CCN(CC(=O)N4CCC(c5ccc(C6(F)CCC(=O)NC6=O)cc5)CC4)CC3)cn2cc1NC(=O)c1cccc(C(F)(F)F)n1` (stereo not drawn) [Example 12, N-[2-[1-[2-[4-[4-(3-fluoro-2,6-dioxo-3-piperidyl)phenyl]-1-piperidyl]-2-oxo-ethyl]-4-piperidyl]-7-isopropoxy-imidazo[1,2-a]pyridin-6-yl]-6-(trifluoromethyl)pyridine-2-carboxamide] was tested. Which DC50 did it give?
**A.** Its DC50 is 100 to 500 nM.

**Q.** Which DC50 does the source give for `CC(C)Oc1cc2nc(C3CCN(CC(=O)N4CCC(c5cccc(NC6CCC(=O)NC6=O)c5F)CC4)CC3)cn2cc1NC(=O)c1cccc(C(F)(F)F)n1` (stereo not drawn) [Example 13, N-[2-[1-[2-[4-[3-[(2,6-dioxo-3-piperidyl)amino]-2-fluoro-phenyl]-1-piperidyl]-2-oxo-ethyl]-4-piperidyl]-7-isopropoxy-imidazo[1,2-a]pyridin-6-yl]-6-(trifluoromethyl)pyridine-2-carboxamide] here?
**A.** Its DC50 is 100 to 500 nM.

**Q.** `CC(C)Oc1cc2nc(C3CCN(CC(=O)N4CCN(CCCc5ccc(NC6CCC(=O)NC6=O)cc5)CC4)CC3)cn2cc1NC(=O)c1cccc(C(F)(F)F)n1` (stereo not drawn) [Example 16, N-[2-[1-[2-[4-[3-[4-[(2,6-dioxo-3-piperidyl)amino]phenyl]propyl]piperazin-1-yl]-2-oxo-ethyl]-4-piperidyl]-7-isopropoxy-imidazo[1,2-a]pyridin-6-yl]-6-(trifluoromethyl) pyridine-2-carboxamide] was tested. Which DC50 did it give?
**A.** Its DC50 is 100 to 500 nM.

**Q.** `CC(C)Oc1cc2nc(C3CCN(CC(=O)N4CCC(c5cccc(NC6CCC(=O)NC6=O)c5)CC4)CC3)cn2cc1NC(=O)c1cccc(C(F)(F)F)n1` (stereo not drawn) [Example 17, N-[2-[1-[2-[4-[3-[(2,6-dioxo-3-piperidyl)amino]phenyl]-1-piperidyl]-2-oxo-ethyl]-4-piperidyl]-7-isopropoxy-imidazo[1,2-a]pyridin-6-yl]-6-(trifluoromethyl)pyridine-2-carboxamide] was tested. Which DC50 did it give?
**A.** The DC50 was 10 to 100 nM.

**Q.** For `CC(C)Oc1cc2nc(C3CCN(CC(=O)N4CCN(c5cc6c(cc5F)c(N5CCC(=O)NC5=O)nn6C)CC4)CC3)cn2cc1NC(=O)c1cccc(C(F)(F)F)n1` [Example 18, N-(2-(1-(2-(4-(3-(2,4-dioxotetrahydropyrimidin-1(2H)-yl)-5-fluoro-1-methyl-1H-indazol-6-yl)piperazin-1-yl)-2-oxoethyl)piperidin-4-yl)-7-isopropoxyimidazo[1,2-a]pyridin-6-yl)-6-(trifluoromethyl)picolinamide], which DC50 is on record?
**A.** Its DC50 is 10 to 100 nM.
